# From patent US20160051514A1, “METHODS FOR TREATMENT OF CARDIOMYOPATHY” (THE BRIGHAM AND WOMEN'S HOSPITAL, INC., priority 2013, published 2016)
# “Also recorded” adds a separate entry of the source.
# Key:
# [1] = tested on: zebrafish ventricular myocytes expressing 2057del2 plakoglobin; assay: Action potentials by current clamp in isolated zebrafish ventricular myocytes; assay type: cell-based, zebrafish (Danio rerio)
# Excerpt: (§1) Zebrafish ventricular myocyte isolation and culture: Zebrafish (Danio rerio) were bred and maintained at 28′C with 14 hr exposure to light and 10 hr to dark (day/night cycle) according to IACUC-approved protocols. Hearts were extracted from anesthetized fish at 21-56 days post-fertilization(dpf) using micro-dissecting tweezers (Roboz Surgical Instruments), washed vigorously in culture medium (M199, primocin, HEPES, L-glutamine, 10% fetal bovine serum) and placed in fresh medium. Ventricles were separated at the atrio-ventricular junction, pooled in a tube containing enzyme solution (HBSS without calcium/magnesium, Trypsin, PCN/Streptomycin, HEPES) at 37° C. and agitated in a thermomixer at 1000-1200 RPM. Dissociated cells were collected every 10 min from supernatants and transferred to tubes containing culture medium and 10% fetal bovine srum to halt trypsinization. Cells were then pelleted by centrifugation, resuspended in fresh culture medium, and seeded on sterile cover slips coated with laminin (20 μg/ml)^11 at 28° C. in a 5% CO2 incubator. After 36 hr, culture medium was changed and unattached cells were removed.
# After opening the gigaseal, the microelectrode amplifier (HEKA, EP-10, Lambrecht, Germany) was set to zero holding current and cells were stimulated at a frequency of 0.5 to 1 Hz. Recordings were corrected for a junction potential of 12 mV.^12,13
# as §1, with “culture:” for “culture: Zebrafish (Danio rerio) were bred and maintained at 28′C with 14 hr exposure to light and 10 hr to dark (day/night cycle) according to IACUC-approved protocols.”, “3-4 or 5-7 weeks post-fertilization” for “21-56 days post-fertilization(dpf)”, “(calcium/magnesium free-HBSS containing trypsin, penicillin/streptomycin,” for “(HBSS without calcium/magnesium, Trypsin, PCN/Streptomycin,”, “serum” for “srum”, “μg/ml)” for “μg/ml)^11”, “28.5°” for “28°”
# Cellular electrophysiology methods: Current clamp experiments in isolated neonatal rat and zebrafish ventricular myocytes were carried out using standard protocols (31). […] After opening the gigaseal, the microelectrode amplifier (HEKA, EP-10, Lambrecht, Germany) was set to zero holding current and cells were stimulated at a frequency of 0.5 to 1 Hz. Recordings were corrected for a junction potential of 12 mV (32,33). The chemical composition of the external and pipette solutions is described in supplemental material.
# [2] = tested on: 2057del2 plakoglobin zebrafish; assay: Survival and cardiac physiology in the zebrafish model of ACM; assay type: in vivo
# Method: In-house software (implemented in MATLAB™) was used to determine heart rate, while measurements of ventricular long and short axes in both diastole and systole were obtained using ImageJ™. Cardiac output was measured as diastolic minus systolic ventricular volume multiplied by heart rate, as outlined by Shin et al (30). Fractional shortening was calculated as end-diastolic diameter minus end-systolic diameter divided by end-diastolic diameter.
# Survival studies: Embryos were kept in petri dishes until 7 dpf and then transferred to nursery tanks with larval food. Observations for phenotype and survival were recorded for several weeks. Data are presented as a Kaplan-Meier curve using Graphpad™ software.
# [3] = 3-4 weeks post-fertilization, 2057del2 plakoglobin + SB2
# [4] = 3-4 weeks post-fertilization, Control + SB2
# [5] = 5-7 weeks post-fertilization, 2057del2 plakoglobin + SB2, embryos treated at 1 dpf for 6 days (3.0 μM)
# [6] = 5-7 weeks post-fertilization, Control + SB2, embryos treated at 1 dpf for 6 days (3.0 μM)
# [7] = embryos treated at 1 dpf for 6 days, myocytes studied at 5-7 weeks
smiles,measurement,setting,value
Cn1cc(C2=C(c3ccc(Cl)cc3Cl)C(=O)NC2=O)c2ccccc21 [SB216763],Action potential duration,[1]; [3],175 ms
same,Maximal upstroke velocity,[1]; [3],22 V/s
same,Resting membrane potential,[1]; [3],−75 mV
same,Action potential duration,[1]; [4],173 ms
same,Maximal upstroke velocity,[1]; [4],35 V/s
same,Resting membrane potential,[1]; [4],−79 mV
same,Action potential duration,[1]; [5],154 ms
same,Maximal upstroke velocity,[1]; [5],66 V/s
same,Resting membrane potential,[1]; [5],−78 mV
same,Action potential duration,[1]; [6],195 ms
same,Maximal upstroke velocity,[1]; [6],53 V/s
same,Resting membrane potential,[1]; [6],−77 mV
same,Effect on APD80% in fish expressing mutant plakoglobin,[1]; [7],shortened APD8O% beyond control levels; also recorded: shortened APD80% beyond control levels
same,Effect on RMP and dV/dtmax in fish expressing mutant plakoglobin,[1]; [7],normalized RMP and dV/dtmax
same,Effect on action potentials in myocytes from control fish,[1]; [7],had no effect on action potentials; also recorded: did not affect action potentials
same,"Effect on action potential remodeling, short-term exposure of isolated cells",[1]; isolated myocytes from transgenic fish treated in culture for 36 hr,normalized action potential remodeling
same,Survival at 3 months,[2]; longer term treatment of larval fish (7 days),substantially increased survival
same,"Cardiac phenotype (bradycardia, contractility, heart failure)",[2]; mutant fish,rescues the heart failure phenotype; also recorded: prevented heart failure; also recorded: prevented bradycardia and contractility defects
same,Survival at 28 days,[2]; mutant fish,significantly increased survival
same,"Cardiac phenotype (bradycardia, contractility, heart failure)","[2]; mutant fish, listed as SB2","reduced nppb expression and bradycardia, improved contractility"
same,Survival / mortality of mutant fish,[2]; time not stated,reduced mortality; also recorded: increased survival
same,Developmental abnormalities,[2]; wide range of doses during embryonic or larval development,No developmental abnormalities were observed
